Test results as given in US10906930B2, “Compositions and methods for activating “stimulator of interferon gene”-dependent signalling” (ADURO BIOTECH, INC., priority 2015, dated 2021).
Like-named read-outs stand apart in the source and are kept apart here.

Assays:
[1] = target: T1, wild type hSTING (STING AA140-379) (Homo sapiens, UniProt Q86WV6, H232R); test: DSF Tm shift with purified hSTING WT protein; type: binding; conditions: for hSTING Tm Shift WT: 1 mg/mL purified STING AA140-379, ligand 1 mM
T1 construct: DNA encoding amino acids 140-379 (amino acid numbering corresponding to Swiss Prot Q86WV6); 6xHIS (N, cleaved yes); SUMO (N, cleaved yes); made in house; host or cells: E. coli Rosetta2 (DE3)
Experimental: (§1) Cells were grown in lysogeny broth at 37° C. until a […] absorbance of 0.6 was reached. […] Cell pellets were re-suspended on ice in a buffer containing 50 mM Tris hydrochloride (Tris-HCl) pH 7.5, 500 mM sodium chloride (NaCl), 20 mM imidazole, 10% glycerol, 1 mM tris(2-carboxyethyl)phosphine hydrochloride (TCEP) and protease inhibitor tablet (Pierce) (Buffer A). Cells were lysed using an S-450D sonifier (Emmerson industrial) on ice. […] The protein is heated in the presence of a dye that binds to and fluoresces in hydrophobic environments. The protein is thermally denatured by heating resulting in increased dye binding to the unfolded protein and fluorescence. The temperature midpoint (Tm) of a proteins denaturation is established by calculating the half maximal value of the denaturation curve. The temperature midpoint of the protein in the presence of a ligand is directly related to the affinity of the ligand for the protein and therefore its ability to stabilize the protein at higher temperatures.
(§2) Each of wild type hSTING, HAQ allele hSTING and REF allele hSTING were used with each of the reference compounds and compounds of the invention as listed in Table 4. […] Samples were placed in hard shell PCR plate (Bio-Rad). The fluorescence as a function of temperature was recorded in a CFX 96 real time PCR machine (Bio-Rad) reading on the HEX channel, excitation 450-490, emission 560-580 nm. The temperature gradient was from 15-80° C. ramping 0.5° C. per 15 seconds and recording every 0.5° C. After subtraction of the background signal from a sample lacking protein and ligand. The midpoint temperature (Tm) was calculated by fitting the curves of the fluorescence as a function of temperature to a Boltzmann sigmoidal function (Graph Pad Prism).

[2] = target: T2, HAQ allele hSTING (STING AA140-379) (Homo sapiens, UniProt Q86WV6, G230A/H232R/R293Q); test: DSF Tm shift with purified hSTING HAQ allele protein; type: binding; conditions: for hSTING Tm Shift HAQ: 1 mg/mL purified STING AA140-379, ligand 1 mM
T2 construct: DNA encoding amino acids 140-379 (amino acid numbering corresponding to Swiss Prot Q86WV6); 6xHIS (N, cleaved yes); SUMO (N, cleaved yes); made in house; host or cells: E. coli Rosetta2 (DE3)
Experimental: as §1, §2

[3] = target: T3, REF allele hSTING (STING AA140-379) (Homo sapiens, UniProt Q86WV6); test: DSF Tm shift with purified hSTING REF allele protein; type: binding; conditions: for hSTING Tm Shift REF: 1 mg/mL purified STING AA140-379, ligand 1 mM
T3 construct: DNA encoding amino acids 140-379 (amino acid numbering corresponding to Swiss Prot Q86WV6); 6xHIS (N, cleaved yes); SUMO (N, cleaved yes); made in house; host or cells: E. coli Rosetta2 (DE3)
Experimental: as §1, §2

[4] = tested on: human STING signaling in THP1 cells (HAQ allele); test: THP1-Dual IRF-3 inducible luciferase reporter assay; type: cell-based; conditions: Homo sapiens
Experimental: […] After 30 minutes, cells were washed and fresh RPMI media containing 10% FBS was added, and cells were incubated at 37° C. with 5% CO2. Cell culture supernatants from each sample were collected after overnight incubation, and 10 μL of the cell culture supernatants was added to 50 μL QUANTI-Luc reagent (Invivogen). Type I interferon activation was determined by measuring secreted luciferase levels on a SpectraMax M3 spectrophotometer (Molecular Devices).

[5] = THP-1, THP1 cells (HAQ allele), without digitonin, read-out: EC50 No digitonin

T3 sequence (Q86WV6 140-379): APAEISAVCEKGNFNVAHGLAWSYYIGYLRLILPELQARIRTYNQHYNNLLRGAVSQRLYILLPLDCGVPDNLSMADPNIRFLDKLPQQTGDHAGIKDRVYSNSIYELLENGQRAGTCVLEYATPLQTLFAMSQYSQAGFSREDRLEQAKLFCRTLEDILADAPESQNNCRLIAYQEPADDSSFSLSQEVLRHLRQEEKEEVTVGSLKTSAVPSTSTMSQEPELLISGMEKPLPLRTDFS
T2 sequence (Q86WV6 140-379 G230A/H232R/R293Q): as the sequence (Q86WV6 140-379) above, with G91A, H93R, R154Q counted along it
T1 sequence (Q86WV6 140-379 H232R): as the sequence (Q86WV6 140-379) above, with H93R counted along it

SMILES | hSTING Tm Shift WT [1] | Tm shift compared with reference compound, in words ([1]; hSTING WT) | hSTING Tm Shift HAQ [2] | Tm shift compared with reference compound, in words ([2]; hSTING HAQ allele) | hSTING Tm Shift REF [3] | Tm shift compared with reference compound, in words ([3]; hSTING REF allele) | EC50 [4, 5] | EC50 ([4]; THP-1, read-out: EC50 No digitonin)
Nc1ncnc2c1ncn2[C@@H]1O[C@@H]2CO[P@@](=O)(S)O[C@@H]3[C@H](F)[C@@H](CO[P@](=O)(S)O[C@H]2[C@H]1F)O[C@H]3n1cnc2c(N)ncnc21 [Compound 5a, dithio-[RP, SP]-cyclic-[3′F-A(2′,5′)p-2′F-A(3′,5′)p]] | 11.5 °C | higher Tm shift than the di-OH reference 2′3′-SR-(A)(A) | 19.9 °C | higher Tm shift than the di-OH reference 2′3′-SR-(A)(A) | 7.9 °C | higher Tm shift than the di-OH reference 2′3′-SR-(A)(A) | 34.8 µM | –
Nc1ncnc2c1ncn2[C@@H]1O[C@@H]2CO[P@@](=O)(S)O[C@@H]3[C@@H](F)[C@@H](CO[P@](=O)(S)O[C@H]2[C@H]1F)O[C@H]3n1cnc2c(N)ncnc21 [Compound 10a, dithio-[RP, Sp]-cyclic-[3′βF-A(2′,5′)p-2′F-A(3′,5′)p]] | 7.0 °C | – | 12.7 °C | – | 3.4 °C | – | 28.5 µM | –
Nc1ncnc2c1ncn2[C@@H]1O[C@@H]2CO[P@@](=O)(S)O[C@@H]3[C@H](F)[C@@H](CO[P@](=O)(S)O[C@H]2[C@H]1O)O[C@H]3n1cnc2c(N)ncnc21 [Compound 20a, dithio-[RP, SP]-cyclic-[3′F-A(2′,5′)p-A(3′,5′)p]] | 6.6 °C | – | 11.8 °C | – | 4.0 °C | – | > 150 µM | –
Nc1nc2c(ncn2[C@@H]2O[C@@H]3CO[P@](=O)(S)O[C@@H]4[C@H](F)[C@@H](CO[P@@](=O)(S)O[C@H]3[C@H]2F)O[C@H]4n2cnc3c(N)ncnc32)c(=O)[nH]1 [Compound 32a, dithio-[RP, SP]-cyclic-[2′F-G(3′,5′)p-3′F-A(2′,5′)p]] | 10.6 °C | – | 14.3 °C | – | 9.3 °C | – | 24.9 µM | –
Nc1nc2c(ncn2[C@@H]2O[C@@H]3CO[P@](=O)(S)O[C@@H]4[C@H](F)[C@@H](CO[P@](=O)(S)O[C@H]3[C@H]2F)O[C@H]4n2cnc3c(N)ncnc32)c(=O)[nH]1 [Compound 32b, dithio-[SP, SP]-cyclic-[2′F-G(3′,5′)p-3′F-A(2′,5′)p]] | 6.2 °C | – | 9.3 °C | – | 5.5 °C | – | > 150 µM | –
Nc1nc2c(ncn2[C@@H]2O[C@@H]3CO[P@](=O)(S)O[C@@H]4[C@H](O)[C@@H](CO[P@@](=O)(S)O[C@H]3[C@H]2F)O[C@H]4n2cnc3c(N)ncnc32)c(=O)[nH]1 [Compound 35a, dithio-[RP, SP]-cyclic-[2′F-G(3′,5′)p-A(2′,5′)p]] | 10.8 °C | – | 14.2 °C | – | 9.9 °C | – | – | 54.9 µM
Nc1ncnc2c1ncn2[C@@H]1O[C@@H]2CO[P@@](=O)(S)O[C@@H]3C[C@@H](CO[P@](=O)(S)O[C@H]2[C@H]1F)O[C@H]3n1cnc2c(N)ncnc21 [Compound 45a, dithio-[RP, SP]-cyclic-[3′H-A(2′,5′)p-2′F-A(3′,5′)p]] | 7.5 °C | – | 13.1 °C | – | 4.3 °C | – | 113 µM | –
Nc1ncnc2c1ncn2[C@@H]1O[C@@H]2COP(=O)(S)O[C@@H]3[C@@H](F)[C@@H](COP(=O)(S)O[C@H]2[C@H]1O)O[C@H]3n1cnc2c(N)ncnc21 (stereo partly shown) [Compound 53, dithio-cyclic-[3′βF-A(2′,5′)p-A(3′,5′)p]] | 1.1 °C | – | 5.5 °C | – | −3.4 °C | – | – | –
